Laboratory results from ChEMBL document CHEMBL3734667 (Bioorg Med Chem, 2015).
pEC50: −log10 of the molar value.

Columns and labels:
[1] = Cytotoxicity against african green monkey Vero 76 cells assessed as cell viability after 48 to 96 hrs by crystal violet staining method; assay type: cell-based; details: chlorocebus sabaeus
[2] = Cytotoxicity against MDBK cells assessed as cell viability after 48 to 96 hrs by MTT assay; assay type: cell-based, Bos taurus; details: cattle
[3] = test system: Vesicular stomatitis virus; assay: Antiviral activity against VSV; assay type: functional, organism-based
[4] = test system: Bovine viral diarrhea virus 1; assay: Antiviral activity against BVDV infected in MDBK cells assessed as inhibition of virus-induced cytopathogenicity after 3 to 4 days by MTT assay; assay type: functional, organism-based; details: Bovine viral diarrhea virus isolates and strains
Human orthopneumovirus = assay: Antiviral activity against human RSV infected in african green monkey Vero76 cells assessed as inhibition of virus-induced cytopathogenicity after 5 days by plaque reduction assay; assay type: functional, organism-based; details: human respiratory syncytial virus, Vero 76, 120 h
[5] = Cytotoxicity against BHK cells assessed as cell viability after 48 to 96 hrs by MTT assay; assay type: cell-based, Mesocricetus auratus; details: hamster
Coxsackievirus B5 = assay: Antiviral activity against human CVB5 infected in african green monkey Vero76 cells assessed as inhibition of virus-induced cytopathogenicity after 3 days by plaque reduction assay; assay type: functional, organism-based; details: Enterovirus B, Vero 76, 72 h
Vaccinia virus = assay: Antiviral activity against Vaccinia virus; assay type: functional, organism-based; details: Orthopoxvirus vaccinia
[6] = test system: Human immunodeficiency virus 1; assay: Antiviral activity against HIV-1 infected in MT4 cells assessed as inhibition of virus-induced cytopathogenicity after 4 days by MTT assay; assay type: functional, organism-based; details: Human immunodeficiency virus 1, MT4, 96 h
Yellow fever virus = assay: Antiviral activity against YFV infected in BHK-21 cells assessed as inhibition of virus-induced cytopathogenicity after 3 to 4 days by MTT assay; assay type: functional, organism-based
[7] = Cytotoxicity against human MT4 cells assessed as cell viability after 96 hrs by MTT assay; assay type: cell-based
Poliovirus 1 = assay: Antiviral activity against Human poliovirus 1 Sabin infected in african green monkey Vero76 cells assessed as inhibition of virus-induced cytopathogenicity by plaque reduction assay; assay type: functional, organism-based; details: Enterovirus C, Vero 76
[8] = test system: Mammalian orthoreovirus 1; assay: Antiviral activity against Reo-1 virus infected in BHK-21 cells assessed as inhibition of virus-induced cytopathogenicity after 3 to 4 days by MTT assay; assay type: functional, cell-based; details: Mammalian orthoreovirus 1, BHK-21

NNC(=O)Cn1nnc2ccccc21
> 100 µM: CC50 [1] | CC50 [2] | CC50 [5] | CC50 at 96 h [7]
< 4.00: pEC50 [3] | pEC50 [4] | pEC50 (Human orthopneumovirus) | pEC50 (Coxsackievirus B5) | pEC50 (Vaccinia virus) | pEC50 [6] | pEC50 (Yellow fever virus)

Cc1cc2nnn(C3CCCO3)c2cc1C (stereo unspecified)
< 4.00: pEC50 [4] | pEC50 [6] | pEC50 (Yellow fever virus)
> 100 µM: CC50 [2] | CC50 [5] | CC50 at 96 h [7]

[O-][n+]1c2ccccc2nn1-c1ccc(O)cc1
< 4.00: pEC50 [3] | pEC50 [4] | pEC50 (Poliovirus 1) | pEC50 (Human orthopneumovirus) | pEC50 (Coxsackievirus B5) | pEC50 (Vaccinia virus) | pEC50 [6] | pEC50 (Yellow fever virus) | pEC50 [8]
> 100 µM: CC50 [1] | CC50 [2] | CC50 [5] | CC50 at 96 h [7]

COc1cc(/C=C/C(=O)OCCn2nnc3ccccc32)cc(OC)c1OC
70 µM: CC50 [2]
> 100 µM: CC50 [1] | CC50 [5]
45 µM: CC50 at 96 h [7]
< 4.00: pEC50 [3] | pEC50 [4] | pEC50 (Human orthopneumovirus) | pEC50 (Coxsackievirus B5) | pEC50 (Vaccinia virus) | pEC50 [6] | pEC50 (Yellow fever virus)

CN(C)c1cccc(C(=O)OCCn2nnc3ccccc32)c1
< 4.00: pEC50 [3] | pEC50 [4] | pEC50 (Human orthopneumovirus) | pEC50 (Coxsackievirus B5) | pEC50 (Vaccinia virus) | pEC50 [6] | pEC50 (Yellow fever virus)
> 100 µM: CC50 [5]
≥ 100 µM: CC50 [1] | CC50 [2]
65 µM: CC50 at 96 h [7]

COc1cc(C(=O)OCCCn2nnc3ccccc32)cc(OC)c1OC
< 4.00: pEC50 [3] | pEC50 [4] | pEC50 (Human orthopneumovirus) | pEC50 (Coxsackievirus B5) | pEC50 (Vaccinia virus) | pEC50 [6] | pEC50 (Yellow fever virus)
100 µM: CC50 [1]
≥ 100 µM: CC50 [2]
> 100 µM: CC50 [5] | CC50 at 96 h [7]

O=C(O)COc1ccc(-n2nc3ccccc3[n+]2[O-])cc1
< 4.00: pEC50 [3] | pEC50 [4] | pEC50 (Poliovirus 1) | pEC50 (Human orthopneumovirus) | pEC50 (Coxsackievirus B5) | pEC50 (Vaccinia virus) | pEC50 [6] | pEC50 (Yellow fever virus) | pEC50 [8]
> 100 µM: CC50 [1] | CC50 [2] | CC50 [5] | CC50 at 96 h [7]

Clc1cc2nnn(C3CCCO3)c2cc1Cl (stereo unspecified)
< 4.00: pEC50 [4] | pEC50 [6] | pEC50 (Yellow fever virus)
> 100 µM: CC50 [2] | CC50 [5] | CC50 at 96 h [7]

C[C@H](Oc1ccc(-n2nc3ccccc3n2)cc1)C(=O)O
< 4.00: pEC50 [3] | pEC50 [4] | pEC50 (Poliovirus 1) | pEC50 (Human orthopneumovirus) | pEC50 (Coxsackievirus B5) | pEC50 (Vaccinia virus) | pEC50 [6] | pEC50 (Yellow fever virus)
> 100 µM: CC50 [1] | CC50 [2] | CC50 [5] | CC50 at 96 h [7]

O=C(Cn1nc2ccccc2n1)N1CCOCC1
< 4.00: pEC50 [3] | pEC50 [4] | pEC50 (Human orthopneumovirus) | pEC50 (Coxsackievirus B5) | pEC50 (Vaccinia virus) | pEC50 [6] | pEC50 (Yellow fever virus)
> 100 µM: CC50 [1] | CC50 [2] | CC50 [5] | CC50 at 96 h [7]

CN(C)C(=O)Cn1nc2ccccc2n1
< 4.00: pEC50 [3] | pEC50 [4] | pEC50 (Human orthopneumovirus) | pEC50 (Coxsackievirus B5) | pEC50 (Vaccinia virus) | pEC50 [6] | pEC50 (Yellow fever virus)
> 100 µM: CC50 [1] | CC50 [2] | CC50 [5] | CC50 at 96 h [7]

CN1CCN(CCn2nnc3ccccc32)CC1
> 100 µM: CC50 [1] | CC50 [2] | CC50 [5] | CC50 at 96 h [7]
< 4.00: pEC50 [3] | pEC50 [4] | pEC50 (Human orthopneumovirus) | pEC50 (Coxsackievirus B5) | pEC50 (Vaccinia virus) | pEC50 [6] | pEC50 (Yellow fever virus)

CC(CC(=O)O)n1nc2ccc3ccccc3c2n1 (stereo unspecified)
> 100 µM: CC50 [1] | CC50 [2] | CC50 [5] | CC50 at 96 h [7]
< 4.00: pEC50 [3] | pEC50 [4] | pEC50 (Human orthopneumovirus) | pEC50 (Coxsackievirus B5) | pEC50 (Vaccinia virus) | pEC50 [6] | pEC50 (Yellow fever virus)

O=C(O)COc1ccc(-n2nc3ccc(Cl)cc3[n+]2[O-])cc1
> 100 µM: CC50 [2] | CC50 [5] | CC50 at 96 h [7]
< 4.00: pEC50 [3] | pEC50 [4] | pEC50 (Poliovirus 1) | pEC50 (Human orthopneumovirus) | pEC50 (Coxsackievirus B5) | pEC50 (Vaccinia virus) | pEC50 [6] | pEC50 (Yellow fever virus) | pEC50 [8]
100 µM: CC50 [1]
